One assay concerns the target COX-1 (UniProt P05979). It is filed as biochemical. The conditions noted are these: conversion of arachidonic acid to prostaglandin; 10 min preincubation at 37° C.; three separate experiments. An excerpt:
(§1) The Schrodinger Maestro molecular modeling suite (Schrodinger LLC, New York, USA) was utilized for all stages of virtual screening modeling. QikProp software tools offer a fast, accurate, and user-friendly approach for predicting molecular characteristics. This software evaluates a given molecule's properties and compares them with those of substances present in 95% of commonly prescribed drugs. A series of graded filters is employed to identify potential interactions within the active site of the receptor and the ligand. This process involves constructing a grid with varying field sets that accurately score the ligand poses while simultaneously depicting the structure and attributes of the receptor. COX-1 and COX-2 inhibitor screening assay kits were obtained from Cayman Chemical (Ann Arbor, MI, USA).
(§2) The inhibitory effects of tolterodine on COX-1 and COX-2 were determined using COX inhibitor screening test kits, testing each compound's capacity to inhibit the conversion of arachidonic acid to prostaglandin. In test tubes, 25 mM Tris-HCl, pH 8.0, containing 5 mM EDTA, phenol, and 1 mM hematin was added. Tolterodine was dissolved in DMSO and added in concentrations ranging from […]. […]
(§3) Three separate experiments were used to calculate the IC50 values. The selectivity index was calculated as follows: Selectivity Index (SI)=IC50 COX-1/IC50 COX-2

The next assay has as its target T1, COX-2 (Homo sapiens, UniProt P35354).
T1 construct: purchased Cayman Chemical (Ann Arbor, MI, USA)
As to the kind of experiment: biochemical.
Source text: as §1, §2, §3

Values joined by “and” are separate entries in the source; they are usually repeats but may differ in a detail not shown here. Equal entries are not always repeated.

Usually IC50 stands for the point on the concentration scale where inhibition reaches its midpoint. Higher therefore signals weaker potency.

T1 sequence (P35354 18-604): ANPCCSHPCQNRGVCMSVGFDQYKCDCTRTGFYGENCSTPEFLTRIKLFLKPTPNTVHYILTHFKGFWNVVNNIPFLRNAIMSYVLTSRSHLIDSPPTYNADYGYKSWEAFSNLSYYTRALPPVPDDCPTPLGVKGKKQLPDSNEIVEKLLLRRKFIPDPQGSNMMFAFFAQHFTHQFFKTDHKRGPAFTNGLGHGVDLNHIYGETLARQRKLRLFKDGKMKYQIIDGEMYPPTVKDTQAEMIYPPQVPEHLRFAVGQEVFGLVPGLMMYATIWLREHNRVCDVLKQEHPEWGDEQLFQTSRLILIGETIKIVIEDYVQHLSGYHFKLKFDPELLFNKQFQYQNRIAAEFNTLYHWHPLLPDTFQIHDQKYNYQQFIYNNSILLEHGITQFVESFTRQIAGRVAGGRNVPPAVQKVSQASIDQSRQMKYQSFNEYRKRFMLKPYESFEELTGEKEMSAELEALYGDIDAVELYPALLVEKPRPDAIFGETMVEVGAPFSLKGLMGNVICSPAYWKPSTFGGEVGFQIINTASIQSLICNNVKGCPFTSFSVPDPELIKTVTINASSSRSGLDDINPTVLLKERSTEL
COX-1, sequence (P05979 whole entry): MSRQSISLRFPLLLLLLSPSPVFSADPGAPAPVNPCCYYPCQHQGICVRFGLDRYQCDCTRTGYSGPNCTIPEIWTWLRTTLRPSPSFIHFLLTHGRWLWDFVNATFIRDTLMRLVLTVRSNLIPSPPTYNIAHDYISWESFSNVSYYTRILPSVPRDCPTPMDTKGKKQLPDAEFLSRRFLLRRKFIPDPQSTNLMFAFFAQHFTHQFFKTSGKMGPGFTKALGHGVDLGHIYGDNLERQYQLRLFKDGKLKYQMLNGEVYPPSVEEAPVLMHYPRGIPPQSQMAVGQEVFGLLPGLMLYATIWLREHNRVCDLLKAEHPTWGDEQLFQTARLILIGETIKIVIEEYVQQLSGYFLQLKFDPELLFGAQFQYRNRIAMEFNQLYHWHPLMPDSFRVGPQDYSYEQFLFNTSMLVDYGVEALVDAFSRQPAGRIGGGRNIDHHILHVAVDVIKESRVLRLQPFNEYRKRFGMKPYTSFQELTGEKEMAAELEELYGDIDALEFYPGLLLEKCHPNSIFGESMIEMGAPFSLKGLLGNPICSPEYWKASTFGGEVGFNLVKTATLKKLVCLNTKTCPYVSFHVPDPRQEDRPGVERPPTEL

For `Cc1ccc(O)c([C@H](CCN(C(C)C)C(C)C)c2ccccc2)c1` [Tolterodine], the half-maximal inhibitory concentration (IC50) at COX-1 is ~4530 nM and 4530 nM; on COX-2 (conversion of arachidonic acid to prostaglandin, 10 min preincubation at 37° C., three separate experiments) it was ~320 nM and 320 nM. Besides, the “SI (Selectivity Index = IC50 COX-1/IC50 COX-2)” value on COX-2 is on record as 14.3.

The values are drawn from patent US12150922B1, “Methods of inhibiting cyclooxygenase (COX) using tolterodine” (priority 2023, dated 2024).
